Patent publication US10219516B2, “Molecules having pesticidal utility, and intermediates, compositions, and processes, related thereto” (priority 2015, dated 2019)
Read-outs that look alike come from different tables or passages of the source.

Experiments:
Format in all cases: in vivo
[1] = test system: Cabbage Looper (Trichoplusia ni, TRIPNI); experiment: Bioassay on Cabbage Looper (CL), 128-well diet tray assay; details: Trichoplusia ni
Method in brief: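 Second-instar larvae, one to five per well, placed on artificial diet treated with 50 μg/cm^2 test molecule in 90:10 acetone-water, dried before infestation. Held 5–7 days at 25° C, 14:10 light-dark; percent mortality averaged over eight wells.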

[2] = test system: Yellow Fever Mosquito (Aedes aegypti, AEDSAE); experiment: Bioassay on Yellow Fever Mosquito (YFM), 96-well plate larval assay; details: for YFM (Biological Results, rating): Species YFM (Yellow Fever Mosquito); for YFM rating: Yellow Fever Mosquito, 96-well plate larval assay
Description: Certain molecules disclosed in this document were tested against YFM using procedures described in the following paragraph. In the reporting of the results, the “GPA & YFM Rating Table” was used (See Table Section).
Master plates containing 400 μg of a molecule dissolved in 100 μL of dimethyl sulfoxide (DMSO) (equivalent to a 4000 ppm solution) are used. A master plate of assembled molecules contains 15 μL per well. To this plate, 135 μL of a 90:10 water/acetone mixture is added to each well. A robot is programmed to dispense 15 μL aspirations from the master plate into an empty 96-well shallow plate (“daughter” plate). There are 6 reps (“daughter” plates) created per master. The created “daughter” plates are then immediately infested with YFM larvae.
The day before plates are to be treated, mosquito eggs are placed in Millipore water containing liver powder to begin hatching (4 g. into 400 mL). After the “daughter” plates are created using the robot, they are infested with 220 μL of the liver powder/larval mosquito mixture (about 1 day-old larvae). After plates are infested with mosquito larvae, a non-evaporative lid is used to cover the plate to reduce drying. Plates are held at room temperature for 3 days prior to grading. After 3 days, each well is observed and scored based on mortality. The results are indicated in the table entitled “Table ABC: Biological Results” (See Table Section).

[3] = test system: Beet Armyworm (Spodoptera exigua, LAPHEG); experiment: Bioassay on Beet Armyworm (BAW), 128-well diet tray assay
Method in brief: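 Test molecule dissolved in acetone-water 90:10 is applied at 50 μg/cm^2 onto artificial diet and allowed to dry. Second instar larvae, one to five per well, are then added, and trays are vented and kept at 25° C. for five to seven days before mortality is scored.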

[4] = Species CL (Cabbage Looper), read-out: CL (Biological Results, rating)
[5] = Species BAW (Beet Armyworm), read-out: BAW (Biological Results, rating)
[6] = Cabbage Looper, 128-well diet tray assay, read-out: CL rating
[7] = Beet Armyworm, 128-well diet tray assay, read-out: BAW rating

Compound | pest or weed control at 50 µg/cm2 [1, 6] [%] | pest or weed control at 50 µg/cm2 [3, 7] [%] | also measured
O=C(Nc1ccc(F)cc1)c1cc(NC(=O)[C@H]2[C@H](c3cc(Cl)cc(Cl)c3)C2(Cl)Cl)ccc1C(F)(F)F (relative stereo) [F3, trans-5-(2,2-Dichloro-3-(3,5-dichlorophenyl)cyclopropane-1-carboxamido)-N-(4-fluorophenyl)-2-(trifluoromethyl)benzamide] |  |  | pest or weed control at 50 µg/cm2 [1, 4]: 50 to 100%; YFM (Biological Results, rating) [2]: A (80-100); pest or weed control at 50 µg/cm2 [3, 5]: 50 to 100%
O=C(Nc1ccc(F)cc1)c1cc(NC(=O)[C@H]2[C@H](c3cc(Cl)cc(Cl)c3)C2(Cl)Cl)ccc1I (relative stereo) [F4, trans-5-(2,2-Dichloro-3-(3,5-dichlorophenyl)cyclopropane-1-carboxamido)-N-(4-fluorophenyl)-2-iodobenzamide] |  |  | pest or weed control at 50 µg/cm2 [1, 4]: 50 to 100%; YFM (Biological Results, rating) [2]: A (80-100); pest or weed control at 50 µg/cm2 [3, 5]: 50 to 100%
O=C(Nc1ccc(F)cc1)c1cc(NC(=O)[C@H]2[C@H](c3cc(Cl)cc(Cl)c3)C2(Cl)Cl)ccc1-n1cncn1 (relative stereo) [F12, trans-5-(2,2-Dichloro-3-(3,5-dichlorophenyl)cyclopropane-1-carboxamido)-N-(4-fluorophenyl)-2-(1H-1,2,4-triazol-1-yl)benzamide] |  |  | pest or weed control at 50 µg/cm2 [1, 4]: 50 to 100%; YFM (Biological Results, rating) [2]: A (80-100); pest or weed control at 50 µg/cm2 [3, 5]: 50 to 100%
O=C(Nc1ccc(F)cc1)c1cc(NC(=O)[C@H]2[C@H](c3cc(Cl)cc(Cl)c3)C2(Cl)Cl)c(Cl)cc1Cl (relative stereo) [F250, trans-2,4-Dichloro-5-(2,2-dichloro-3-(3,5-dichlorophenyl)cyclopropane-1-carboxamido)-N-(4-fluorophenyl)benzamide] |  |  | YFM (Biological Results, rating) [2]: B (More than 0-Less than 80); pest or weed control at 50 µg/cm2 [3, 5]: 0 to 50%
O=C(Nc1ccccc1)c1cc(NC(=O)[C@H]2[C@H](c3cc(Cl)cc(Cl)c3)C2(Cl)Cl)c(Cl)cc1Cl (relative stereo) [F254, trans-2,4-Dichloro-5-(2,2-dichloro-3-(3,5-dichlorophenyl)cyclopropane-1-carboxamido)-N-phenylbenzamide] |  |  | YFM (Biological Results, rating) [2]: A (80-100)
O=C(Nc1ccc(Cl)nn1)c1cc(NC(=O)[C@H]2[C@H](c3cc(Cl)cc(Cl)c3)C2(Cl)Cl)ccc1Cl (relative stereo) [PF148, trans-2-Chloro-N-(6-chloropyridazin-3-yl)-5-(2,2-dichloro-3-(3,5-dichlorophenyl)cyclopropane-1-carboxamido)benzamide] |  |  | YFM rating [2]: A (80-100)
O=C(Nc1ncc(F)cc1F)c1cc(NC(=O)[C@H]2[C@H](c3cc(Cl)cc(Cl)c3)C2(Cl)Cl)ccc1Cl [F309, 2-Chloro-5-((1R,3R)-2,2-dichloro-3-(3,5-dichlorophenyl)cyclopropane-1-carboxamido)-N-(3,5-difluoropyridin-2-yl)benzamide] |  |  | YFM (Biological Results, rating) [2]: A (80-100)
O=C(Nc1cc(F)cc([N+](=O)[O-])c1)c1cc(NC(=O)[C@H]2[C@H](c3cc(Cl)cc(Cl)c3)C2(Cl)Cl)ccc1Cl [F415, 2-Chloro-5-((1R,3R)-2,2-dichloro-3-(3,5-dichlorophenyl)cyclopropane-1-carboxamido)-N-(3-fluoro-5-nitrophenyl)benzamide] |  |  | YFM rating [2]: A (80-100)
CC(C)(C)OC(=O)N(C(=O)OC(C)(C)C)c1c(F)ccc(NC(=O)c2cc(NC(=O)C3C(c4ccc(Cl)c(Br)c4)C3(Cl)Cl)ccc2Cl)c1F (centres unmarked) [F513, tert-Butyl-N-((tert-butoxy)carbonyl)-N-(3-(5-(3-(3-bromo-4-chlorophenyl)-2,2-dichlorocyclopropane-1-carboxamido)-2-chlorobenzamido)-2,6-difluorophenyl)carbamate] | 50 to 100 | 50 to 100 | 
CC(C)(C)OC(=O)N(C(=O)OC(C)(C)C)c1cc(NC(=O)c2cc(NC(=O)[C@H]3[C@H](c4cc(Cl)cc(Cl)c4)C3(Cl)Cl)ccc2Cl)c(F)cc1F [F519, tert-Butyl-N-((tert-butoxy)carbonyl)-N-(5-(2-chloro-5-((1R,3R)-2,2-dichloro-3-(3,5-dichlorophenyl)cyclopropane-1-carboxamido)benzamido)-2,4-difluorophenyl)carbamate] | 50 to 100 | 50 to 100 | 
CC(C)(C)OC(=O)N(C(=O)OC(C)(C)C)c1cc(NC(=O)c2cc(NC(=O)[C@H]3[C@H](c4ccc(Cl)c(Cl)c4)C3(Cl)Cl)ccc2Cl)c(F)cc1F [F520, tert-Butyl-N-((tert-butoxy)carbonyl)-N-(5-(2-chloro-5-((1R,3R)-2,2-dichloro-3-(3,4-dichlorophenyl)cyclopropane-1-carboxamido)benzamido)-2,4-difluorophenyl)carbamate] | 50 to 100 | 50 to 100 | 
O=C(Nc1ccc(F)cc1F)c1cc(NC(=O)C2C(c3cc(F)c(F)c(F)c3)C2(Cl)Cl)ccc1Cl (stereo not drawn) [F582, 2-Chloro-5-cis-(2,2-dichloro-3-(3,4,5-trifluorophenyl)cyclopropane-1-carboxamido)-N-(2,4-difluorophenyl)benzamide] |  |  | YFM rating [2]: A (80-100)
Nc1c(F)ccc(NC(=O)c2cc(NC(=O)C3C(c4cc(Cl)c(Cl)c(Br)c4)C3(Cl)Cl)ccc2Cl)c1F (stereo not drawn) [F621, N-(3-Amino-2,4-difluorophenyl)-5-(3-trans-(3-bromo-4,5-dichlorophenyl)-2,2-dichlorocyclopropane-1-carboxamido)-2-chlorobenzamide] | 50 to 100 | 50 to 100 | 
Nc1c(F)ccc(NC(=O)c2cc(NC(=O)C3C(c4cc(F)cc(Br)c4)C3(Cl)Cl)ccc2Cl)c1F (stereo not drawn) [F622, N-(3-Amino-2,4-difluorophenyl)-5-(3-trans-(3-bromo-5-fluorophenyl)-2,2-dichlorocyclopropane-1-carboxamido)-2-chlorobenzamide] | 50 to 100 | 50 to 100 | 
Nc1c(F)ccc(NC(=O)c2cc(NC(=O)C3C(c4cc(F)cc(C(F)(F)F)c4)C3(Cl)Cl)ccc2Cl)c1F (stereo not drawn) [F623, N-(3-Amino-2,4-difluorophenyl)-2-chloro-5-(2,2-dichloro-3-trans-(3-fluoro-5-(trifluoromethyl)phenyl)cyclopropane-1-carboxamido)benzamide] | 50 to 100 | 50 to 100 | 
Nc1c(F)ccc(NC(=O)c2cc(NC(=O)C3C(c4ccc(F)c(C(F)(F)F)c4)C3(Cl)Cl)ccc2Cl)c1F (stereo not drawn) [F624, N-(3-Amino-2,4-difluorophenyl)-2-chloro-5-(2,2-dichloro-3-trans-(4-fluoro-3-(trifluoromethyl)phenyl)cyclopropane-1-carboxamido)benzamide] | 50 to 100 | 50 to 100 | 
Nc1c(F)ccc(NC(=O)c2cc(NC(=O)C3C(c4ccc(F)c(Br)c4)C3(Cl)Cl)ccc2Cl)c1F (stereo not drawn) [F625, N-(3-Amino-2,4-difluorophenyl)-5-(3-trans-(3-bromo-4-fluorophenyl)-2,2-dichlorocyclopropane-1-carboxamido)-2-chlorobenzamide] | 50 to 100 | 50 to 100 | 
Nc1c(F)ccc(NC(=O)c2cc(NC(=O)C3C(c4c(F)c(F)c(F)c(F)c4F)C3(Cl)Cl)ccc2Cl)c1F (stereo not drawn) [F626, N-(3-Amino-2,4-difluorophenyl)-2-chloro-5-(2,2-dichloro-3-trans-(perfluorophenyl)cyclopropane-1-carboxamido)benzamide] | 50 to 100 | 50 to 100 | 
Nc1c(F)ccc(NC(=O)c2cc(NC(=O)C3C(c4cc(F)c(F)c(F)c4)C3(Cl)Cl)ccc2Cl)c1F (stereo not drawn) [F627, N-(3-Amino-2,4-difluorophenyl)-2-chloro-5-(2,2-dichloro-3-trans-(3,4,5-trifluorophenyl)cyclopropane-1-carboxamido)benzamide] | 50 to 100 | 50 to 100 | 
O=C(Nc1ccc(F)cc1)c1cc(NC(=O)C2C(c3cc(Cl)cc(Cl)c3)C2(Cl)Cl)ccc1Cl (stereo not drawn) [F629, 2-Chloro-5-(2,2-dichloro-3-cis-(3,5-dichlorophenyl)cyclopropane-1-carboxamido)-N-(4-fluorophenyl)benzamide] | 50 to 100 | 50 to 100 | 
O=C(Nc1ccc(F)cc1)c1cc(NC(=O)C2C(c3cc(Cl)cc(Cl)c3)C2(Cl)Br)ccc1Cl (stereo not drawn) [PF33, 5-(trans)-2-Bromo-2-chloro-3-(3,5-dichlorophenyl)cyclopropane-1-carboxamido)-2-chloro-N-(4-fluorophenyl)benzamide] | 50 to 100 | 50 to 100 | 
N#Cc1ccc(NC(=O)c2cc(NC(=O)C3C(c4cc(Cl)cc(Cl)c4)C3(Cl)Cl)ccc2Cl)cc1Cl (stereo not drawn) [PF120, 2-Chloro-N-(3-chloro-4-cyanophenyl)-5-(trans)-2,2-dichloro-3-(3,5-dichlorophenyl)cyclopropane-1-carboxamido)benzamide] |  |  | YFM rating [2]: A (80-100)
